Laboratory results as given in patent publication US20250320496A1, “MODULATION OF ABCB11 GENE TRANSCRIPTION USING ANTISENSE OLIGONUCLEOTIDES TARGETING REGULATORY RNAS” (CAMP4 Therapeutics Corporation, priority 2022, published 2025).
Strand notation (5' to 3'): a small letter for the sugar, then the base; units joined by * are phosphorothioate-linked, units joined directly phosphodiester-linked; [ ] holds rarer units or linkages, { } end groups; capitals alone tell only the bases. e = 2'-O-(2-methoxyethyl) (MOE); l = locked nucleic acid (LNA); [5mC] = 5-methylcytosine

Tested on: human ABCB11 mRNA
Experiment: ASO treatment of primary human hepatocytes (PHH), ABCB11 mRNA by RT-qPCR normalized to B2M
Type: cell-based
Details: primary human hepatocytes, 5 μM ASO with PO-modifications, normalized to untreated hepatocytes
Outline: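 ABCB11 mRNA was quantified by Taqman RT-qPCR relative to B2M and expressed as fold over untreated cells. Cells were cryopreserved primary human hepatocytes given ASO in Matrigel-supplemented medium 4 h after plating, at 1.25, 2.5, 5 or 10 μM (5 μM for screening), and harvested after 72 hrs.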

Row | Substance | ABCB11 FC mRNA (5 μM ASO vs. untreated)
1 | CO-11214 (antisense eG*eT*lGeG*lA*eG*l[5mC]*eAlA*eA*l[5mC]*eT*lAeG*lG*e[5mC]*lA*e[5mC]eT*eG) | 2.90 fold change
2 | CO-11215 (antisense eG*eT*lG*eGlA*eG*l[5mC]*eAlA*eA*l[5mC]*eTlA*eG*lG*e[5mC]lA*e[5mC]*eT*eG) | 2.68 fold change
3 | CO-11216 (antisense eG*eT*lG*eG*lAeG*l[5mC]*eA*lAeA*l[5mC]*eT*lAeG*lG*e[5mC]*lAe[5mC]*eT*eG) | 2.58 fold change
4 | CO-11217 (antisense eG*eTlG*eG*lA*eGl[5mC]*eA*lA*eAl[5mC]eT*lA*eGlG*e[5mC]*lA*e[5mC]eT*eG) | 2.10 fold change
5 | CO-11218 (antisense eG*eTlG*eG*lAeG*l[5mC]*eAlA*eA*l[5mC]eT*lA*eGlG*e[5mC]*lAe[5mC]*eT*eG) | 2.86 fold change
6 | CO-11219 (antisense eG*eT*lGeG*lA*eGl[5mC]*eA*lAeA*l[5mC]*eTlA*eG*lGe[5mC]*lA*e[5mC]eT*eG) | 2.45 fold change
7 | CO-11220 (antisense eG*eT*lGeG*lAeG*l[5mC]eA*lAeA*l[5mC]eT*lAeG*lGe[5mC]*lAe[5mC]*eT*eG) | 2.22 fold change
8 | CO-11221 (antisense eG*eTlG*eGlA*eGl[5mC]*eAlA*eAl[5mC]*eTlA*eGlG*e[5mC]lA*e[5mC]eT*eG) | 2.00 fold change
9 | CO-11222 (antisense eG*eT*lG*eG*eAlGe[5mC]*eA*lA*eA*e[5mC]*lT*eA*eGlGe[5mC]*eA*l[5mC]*eT*eG) | 1.79 fold change
10 | CO-11223 (antisense eG*eT*lG*eGeAlGe[5mC]*eA*lA*eA*e[5mC]*lT*eA*eGlGe[5mC]eA*l[5mC]*eT*eG) | 1.80 fold change
11 | CO-11224 (antisense eG*eT*lGeGeAlGe[5mC]*eA*lA*eA*e[5mC]*lT*eA*eGlGe[5mC]eAl[5mC]*eT*eG) | 1.88 fold change
12 | CO-11225 (antisense eG*eTlGeGeAlGe[5mC]*eA*lA*eA*e[5mC]*lT*eA*eGlGe[5mC]eAl[5mC]eT*eG) | 1.66 fold change
13 | CO-11226 (antisense eG*eT*lGeG*eA*lG*e[5mC]*eAlA*eA*e[5mC]*lT*eAeG*lG*e[5mC]*eA*l[5mC]eT*eG) | 2.31 fold change
14 | CO-11227 (antisense eG*eT*lG*eGeA*lG*e[5mC]*eAlA*eA*e[5mC]*lTeA*eG*lG*e[5mC]eA*l[5mC]*eT*eG) | 2.11 fold change
15 | CO-11228 (antisense eG*eT*lG*eG*eAlG*e[5mC]*eA*lAeA*e[5mC]*lT*eAeG*lG*e[5mC]*eAl[5mC]*eT*eG) | 1.99 fold change
16 | CO-11229 (antisense eG*eTlG*eG*eA*lGe[5mC]*eA*lA*eAe[5mC]*lT*eA*eGlG*e[5mC]*eA*l[5mC]eT*eG) | 2.83 fold change
17 | CO-11230 (antisense eG*eTlG*eG*eAlG*e[5mC]*eAlA*eA*e[5mC]lT*eA*eGlG*e[5mC]*eAl[5mC]*eT*eG) | 1.63 fold change
18 | CO-11231 (antisense eG*eT*lGeG*eA*lGe[5mC]*eA*lAeA*e[5mC]*lTeA*eG*lGe[5mC]*eA*l[5mC]eT*eG) | 1.85 fold change
19 | CO-11232 (antisense eG*eT*lGeG*eAlG*e[5mC]eA*lAeA*e[5mC]lT*eAeG*lGe[5mC]*eAl[5mC]*eT*eG) | 1.72 fold change
20 | CO-11233 (antisense eG*eTlG*eGeA*lGe[5mC]*eAlA*eAe[5mC]*lTeA*eGlG*e[5mC]eA*l[5mC]eT*eG) | 1.60 fold change
21 | CO-11234 (antisense eG*eT*eG*eG*lAeGe[5mC]*eA*eA*lA*e[5mC]*eT*eA*eGlGe[5mC]*eA*e[5mC]*eT*eG) | 1.55 fold change
22 | CO-11235 (antisense eG*eT*eG*eGlAeGe[5mC]*eA*eA*lA*e[5mC]*eT*eA*eGlGe[5mC]eA*e[5mC]*eT*eG) | 1.47 fold change
